Laboratory results: patent publication US9102622B2 (University of Connecticut, priority 2006, dated 2015)
Read-outs that look alike come from different tables or passages of the source.

Biological target: fatty acid amide hydrolase (FAAH) (Rattus norvegicus (Rat), UniProt P97612)
Assay: FAAH enzyme assay: inhibition of anandamide (AEA) hydrolysis, arachidonic acid quantified by HPLC
Format: biochemical
Conditions: for inhibition at 100 µM: read-out: % Inhibition (Concentration)
Experimental: The resulting supernatant is injected onto the HPLC.

[1] = one-point assay, inhibitor 100 μM, partially purified rat brain FAAH, 15 min
[2] = eight-point assay, anandamide hydrolysis by FAAH, read-out: IC50
[3] = eight-point assay, calculated with Prizm software, read-out: Ki

fatty acid amide hydrolase (FAAH), sequence (P97612 whole entry): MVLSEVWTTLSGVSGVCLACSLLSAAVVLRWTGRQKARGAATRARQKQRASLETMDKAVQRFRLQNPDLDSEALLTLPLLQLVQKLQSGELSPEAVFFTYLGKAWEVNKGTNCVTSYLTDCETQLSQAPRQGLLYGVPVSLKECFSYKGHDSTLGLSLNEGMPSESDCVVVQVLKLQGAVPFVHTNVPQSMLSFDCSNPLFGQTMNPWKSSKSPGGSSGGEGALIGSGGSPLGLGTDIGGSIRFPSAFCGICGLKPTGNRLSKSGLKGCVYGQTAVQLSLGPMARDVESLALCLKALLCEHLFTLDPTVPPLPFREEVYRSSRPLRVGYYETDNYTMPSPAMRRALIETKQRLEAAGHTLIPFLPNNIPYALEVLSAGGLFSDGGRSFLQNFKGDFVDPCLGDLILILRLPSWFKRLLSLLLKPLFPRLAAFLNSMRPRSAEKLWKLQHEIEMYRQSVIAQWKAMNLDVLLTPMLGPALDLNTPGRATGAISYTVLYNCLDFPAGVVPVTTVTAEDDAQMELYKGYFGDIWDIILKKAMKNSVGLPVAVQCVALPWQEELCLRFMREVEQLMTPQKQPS

Compound | inhibition at 100 µM [1] [%] | IC50 [2] [µM] | Ki [3] [µM] | other results
O=S(=O)(F)CCCc1ccccc1 [Compound 4.1, 3-Phenyl-propanesulfonyl fluoride, reference compound] | 19 |  |  | 
O=S(=O)(F)CCCCCCCc1ccccc1 [Compound 4.2, 7-Phenyl-heptanesulfonyl fluoride, reference compound] | 31 |  |  | 
O=S(=O)(F)CCCCCCCCc1ccccc1 [Compound 4.3, 8-Phenyl-octanesulfonyl fluoride, reference compound] |  |  |  | % Inhibition (Concentration) (one-point assay, concentration not given): 24%
O=S(=O)(Cl)CCCCCCCc1cccc(OCc2ccccc2)c1 [Compound 12.2, 7-(3-Benzyloxy-phenyl)-heptanesulfonyl chloride] | 97 | 12 | 2.9 | 
O=S(=O)(Cl)CCCCCCCc1ccccc1OCc1ccccc1 [Compound 12.3, 7-(2-Benzyloxy-phenyl)-heptanesulfonyl chloride] | 97 | 1.75 | 0.41 | 
O=S(=O)(Cl)CCCCCc1ccc(OCc2ccccc2)cc1 [Compound 12.4, 5-(4-Benzyloxy-phenyl)-pentanesulfonyl chloride] | 95 |  |  | 
O=S(=O)(F)CCCCCCCc1cccc(OCc2ccccc2)c1 [Compound 13.2, 7-(3-Benzyloxy-phenyl)-heptanesulfonyl fluoride] | 97 |  |  | 
O=S(=O)(F)CCCCCCCc1ccccc1OCc1ccccc1 [Compound 13.3, 7-(2-Benzyloxy-phenyl)-heptanesulfonyl fluoride] | 100 |  |  | IC50: 0.193 µM; Ki: 0.046 µM
O=S(=O)(F)CCCCCCCc1cccc(O)c1 [Compound 14.2, 7-(3-Hydroxy-phenyl)-heptanesulfonyl fluoride] | 99 | 0.113 | 0.026 | 
O=S(=O)(F)CCCCCCCc1ccccc1O [Compound 14.3, 7-(2-Hydroxy-phenyl)-heptanesulfonyl fluoride] | 100 | 0.054 | 0.013 | 
O=C(CCCOc1cccc(OCc2ccccc2)c1)C(F)(F)F [Compound 23.5, 1,1,1-Trifluoro-5-[3-(Benzyloxy)phenoxy]-2-pentanone] | 93 | 6.9 | 0.77 | 
O=C(CCCCOc1cccc(OCc2ccccc2)c1)C(F)(F)F [Compound 23.6, 1,1,1-Trifluoro-6-[3-(Benzyloxy)phenoxy]-2-hexanone] | 97 | 6.6 | 0.47 | 
O=C(CCCCCOc1cccc(OCc2ccccc2)c1)C(F)(F)F [Compound 23.7, 1,1,1-Trifluoro-7-[3-(Benzyloxy)phenoxy]-2-heptanone] | 96 | 0.47 | 0.052 | 
O=C(CCCCOc1ccccc1OCc1ccccc1)C(F)(F)F [Compound 23.9, 1,1,1-Trifluoro-6-[2-(Benzyloxy)phenoxy]-2-hexanone] | 97 | 0.66 | 0.046 | 
O=C(CCCOc1ccccc1)C(F)(F)F [Compound 23.11, 1,1,1-Trifluoro-5-phenoxy-2-pentanone] | 79 | 11.2 | 1.2 | 
O=C(CCCOc1ccc(O)cc1)C(F)(F)F [Compound 24.1, 1,1,1-Trifluoro-5-[4-(hydroxy)phenoxy]-2-pentanone] | 68 | 14.9 | 1.7 | 
O=C(CCCCCOc1ccc(O)cc1)C(F)(F)F [Compound 24.3, 1,1,1-Trifluoro-7-[4-(hydroxy)phenoxy]-2-heptanone] | 86 | 11.4 | 0.8 | 
Oc1cccc(OCCCC(O)(O)C(F)(F)F)c1 [Compound 24.5, 1,1,1-Trifluoro-2,2-dihydroxy-5-[3-(hydroxy)phenoxy]pentane] | 79 | 22.8 | 2.5 | 
O=C(CCCCOc1cccc(O)c1)C(F)(F)F [Compound 24.6, 1,1,1-Trifluoro-6-[3-(hydroxy)phenoxy]-2-hexanone] | 85 | 29.4 | 2.07 | 
O=C(CCCCCOc1cccc(O)c1)C(F)(F)F [Compound 24.7, 1,1,1-Trifluoro-7-[3-(hydroxy)phenoxy]-2-heptanone] |  | 5.02 | 0.44 | 
O=C(CCCOc1ccccc1O)C(F)(F)F [Compound 24.8, 1,1,1-Trifluoro-5-[2-(hydroxy)phenoxy]-2-pentanone] | 43 | 138 | 15.3 | 
O=C(CCCCCOc1ccccc1O)C(F)(F)F [Compound 24.10, 1,1,1-Trifluoro-7-[2-(hydroxy)phenoxy]-2-heptanone] | 82 | 26.2 | 1.8 | 
O=C(CCCc1ccccc1)C(F)(F)F [Compound 27.1, 1,1,1-Trifluoro-5-phenyl-2-pentanone] | 46 | 69.4 | 4.6 | 

Compound | inhibition at 100 µM [1] [%] | IC50 [2] [µM] | Ki [3] [µM] | other results
O=C(CCCCc1ccccc1)C(F)(F)F [Compound 27.2, 1,1,1-Trifluoro-6-phenyl-2-hexanone] | 53 | 18.8 | 2.1 | 
O=C(CCCCCc1ccccc1)C(F)(F)F [Compound 27.3, 1,1,1-Trifluoro-7-phenyl-2-heptanone, reference compound] | 83 | 11.1 | 1.23 | 
COc1ccc(CCCCC(=O)C(F)(F)F)cc1 [Compound 27.4, 1,1,1-Trifluoro-6-(4-methoxy-phenyl)-2-hexanone] | 82 | 6.9 | 0.6 | 
O=C(c1cccc(-c2cccc(OCc3ccccc3)c2)c1)C(F)(F)F [Compound 30] | 33 |  |  | 
O=C(Cc1cccc(-c2cccc(OCc3ccccc3)c2)c1)C(F)(F)F [Compound 35, 1,1,1-Trifluoro-3-(3-benzyloxy-biphenyl-3-yl)-2-propanone] | 54 |  |  | 
CCCCCc1cc(OC)c(-c2ccc(C(=O)C(F)(F)F)cc2)c(OC)c1 [Compound 39.2, 1-(2′,6′-Dimethoxy-4′-pentylbiphenyl-4-yl)-2,2,2-trifluoroethanone] | 57 |  |  | 
CCCCCCC(C)(C)c1cc(O)c(-c2ccc(C(=O)C(F)(F)F)cc2)c(O)c1 [Compound 40.1, 1-(2′,6′-dihydroxy-4′-(2-methyloctan-2-yl)biphenyl-4-yl)-2,2,2-trifluoroethanone] | 36 |  |  | 
CCCCCCc1ccc(O)c(-c2ccc(C(=O)C(F)(F)F)cc2)c1OC [Compound 40.3, 2,2,2-Trifluoro-1-(3′-hexyl-6′-hydroxy-2′-methoxybiphenyl-4-yl)ethanone] | 81 |  |  | 
O=C(Nc1ccc(Br)cc1)OC1CCCCC1 [Compound 48.1, (4-Bromophenyl)carbamic acid cyclohexyl ester] | 25 |  |  | 
CCOC(=O)Nc1ccc(Br)cc1 [Compound 48.2] | 84 | 4 | 1.2 | 
O=C(Nc1ccc(Br)cc1)OCc1ccccc1 [Compound 48.3, (4-Bromophenyl)carbamic acid benzyl ester] | 36 |  |  | 
O=C(Nc1ccc(Br)cc1)OC12CC3CC(CC(C3)C1)C2 [Compound 48.4] | 56 |  |  | 
O=C(Nc1ccc(I)cc1)Oc1ccccc1 [Compound 48.6, (4-Iodophenyl)carbamic acid phenyl ester] | 84 |  |  | 
CCCCCCC(C)(C)c1cc(OCOC)c(-c2ccc(NC(=O)OCC)cc2)c(OCOC)c1 [Compound 52.2, 2′,6′-Bis(methoxymethoxy)-4′-(1,1-dimethylheptyl)[1,1′-biphenyl]-4-yl carbamic acid ethyl ester] | 64 |  |  | 
CCCCCCC(C)(C)c1cc(OCOCC)c(-c2ccc(NC(=O)OCc3ccccc3)cc2)c(OCOCC)c1 [Compound 52.3, 2′,6′-Bis(ethoxymethoxy)-4′-(1,1-dimethylheptyl)[1,1′-biphenyl]-4-yl carbamic acid benzyl ester] | 41 |  |  | 
CCCCCCC(C)(C)c1cc(O)c(-c2ccc(NC(=O)OC3CCCCC3)cc2)c(O)c1 [Compound 53.1, 2′,6′-Dihydroxy-4′-(2-methyloctan-2-yl)biphenyl-4-yl carbamic acid cyclohexyl ester] | 23 |  |  | 
CCCCCCC(C)(C)c1cc(O)c(-c2ccc(NC(=O)OCC)cc2)c(O)c1 [Compound 53.2, 2′,6′-Dihydroxy-4′-(1,1-dimethylheptyl)[1,1′-biphenyl]-4-yl carbamic acid ethyl ester] | 15 |  |  | 
CCCCCCC(C)(C)c1cc(O)c(-c2ccc(NC(=O)OCc3ccccc3)cc2)c(O)c1 [Compound 53.3, 2′,6′-Dihydroxy-4′-(2-methyloctane-2-yl)biphenyl-4-yl carbamic acid benzyl ester] | 89 |  |  | 
O=C(NCc1ccc(Br)cc1)OCc1ccccc1 [Compound 57.2, (4-Bromobenzyl)carbamic acid benzyl ester] | 89 |  |  | 
Cc1nnc(C(=O)CCCCCCOc2ccc(OCc3ccccc3)cc2)o1 [Compound 65.2, 7-(4-Benzyloxy-phenoxy)-1-(5-methyl-1,3,4-oxadiazol-2-yl)-heptan-1-one] | 96 | 0.12 | 0.008 | 
Cc1nnc(C(=O)CCCCCCOc2ccc(O)cc2)o1 [Compound 66, 7-(4-Hydroxy-phenoxy)-1-(5-methyl-1,3,4-oxadiazol-2-yl)-heptan-1-one] |  | 0.1 | 0.006 | inhibition at 100 µM: 97%
O=C(CCCCCCOc1ccccc1)c1nnc(COCc2ccccc2)o1 [Compound 73.1, 7-(Phenoxy)-1-(5-benzyloxymethyl-1,3,4-oxadiazol-2-yl)-heptan-1-one] | 94 | 0.025 | 0.002 | 
O=C(CCCCCCOc1ccc(OCc2ccccc2)cc1)c1nnc(COCc2ccccc2)o1 [Compound 73.2, 7-(4-Benzyloxy-phenoxy)-1-(5-benzyloxymethyl-1,3,4-oxadiazol-2-yl)-heptan-1-one] |  | 0.021 | 0.002 | inhibition at 100 µM: 93%
